# Experimental data published in publication PMC9728921, “Characterization of a KDM5 small molecule inhibitor with antiviral activity against hepatitis B virus” (PLOS ONE, 2022).
# How the values were obtained:
# [1] = biological target: KDM6B (Homo sapiens, UniProt O15054); assay: KDM6B enzymatic assay (AlphaLISA); format: biochemical
# Protocol: (§1) The following assay protocol was used for all histone demethylases tested except KDM1A, KDM5A, B, and D, which are described below. Compounds were serially diluted into a 384-well Alpha plate as a DMSO solution and mixed with 5 μL reaction buffer (buffer A) containing 50 mM HEPES (pH 7.0), 0.1% BSA, and 0.003% Tween-20. The enzyme of interest was pre-incubated with 15 μM of Fe^2+ for 10 min (except 30 min for KDM2B) in reaction buffer A. 5 μL of the enzyme mixture was added to each of the compound-containing wells and incubated for 10 min. The reaction was started by addition of a 5 μL mixture containing 300 nM peptide substrate, 75 μM L-ascorbic acid, and 30 μM α-ketoglutarate in buffer A. This final 15 μL of reaction mixture was incubated for 20 min for KDM5B and 1 hour for the other KDM enzymes. The reaction was quenched with 10 μL of diluted AlphaLISA Acceptor beads (1:400) in Epigenetics Buffer and incubated for 60 min. The Donor beads were diluted 1:400 into Epigenetics Buffer in the dark and 10 μL of this was added to each well and incubated for another 60 min in the dark. The assay plates were read on an Enspire plate reader (PerkinElmer) using a standard AlphaLISA program.
# (§2) Data was analyzed using GraphPad Prism 6.0 (La Jolla, CA). […] IC50 values were calculated as an average of at least two independent experiments.
# [2] = biological target: KDM7B (Homo sapiens, UniProt Q9UPP1); assay: KDM7B enzymatic assay (AlphaLISA); format: biochemical; conditions: enzyme concentration 2.5 nM
# Sequence of KDM7B (Q9UPP1 whole entry): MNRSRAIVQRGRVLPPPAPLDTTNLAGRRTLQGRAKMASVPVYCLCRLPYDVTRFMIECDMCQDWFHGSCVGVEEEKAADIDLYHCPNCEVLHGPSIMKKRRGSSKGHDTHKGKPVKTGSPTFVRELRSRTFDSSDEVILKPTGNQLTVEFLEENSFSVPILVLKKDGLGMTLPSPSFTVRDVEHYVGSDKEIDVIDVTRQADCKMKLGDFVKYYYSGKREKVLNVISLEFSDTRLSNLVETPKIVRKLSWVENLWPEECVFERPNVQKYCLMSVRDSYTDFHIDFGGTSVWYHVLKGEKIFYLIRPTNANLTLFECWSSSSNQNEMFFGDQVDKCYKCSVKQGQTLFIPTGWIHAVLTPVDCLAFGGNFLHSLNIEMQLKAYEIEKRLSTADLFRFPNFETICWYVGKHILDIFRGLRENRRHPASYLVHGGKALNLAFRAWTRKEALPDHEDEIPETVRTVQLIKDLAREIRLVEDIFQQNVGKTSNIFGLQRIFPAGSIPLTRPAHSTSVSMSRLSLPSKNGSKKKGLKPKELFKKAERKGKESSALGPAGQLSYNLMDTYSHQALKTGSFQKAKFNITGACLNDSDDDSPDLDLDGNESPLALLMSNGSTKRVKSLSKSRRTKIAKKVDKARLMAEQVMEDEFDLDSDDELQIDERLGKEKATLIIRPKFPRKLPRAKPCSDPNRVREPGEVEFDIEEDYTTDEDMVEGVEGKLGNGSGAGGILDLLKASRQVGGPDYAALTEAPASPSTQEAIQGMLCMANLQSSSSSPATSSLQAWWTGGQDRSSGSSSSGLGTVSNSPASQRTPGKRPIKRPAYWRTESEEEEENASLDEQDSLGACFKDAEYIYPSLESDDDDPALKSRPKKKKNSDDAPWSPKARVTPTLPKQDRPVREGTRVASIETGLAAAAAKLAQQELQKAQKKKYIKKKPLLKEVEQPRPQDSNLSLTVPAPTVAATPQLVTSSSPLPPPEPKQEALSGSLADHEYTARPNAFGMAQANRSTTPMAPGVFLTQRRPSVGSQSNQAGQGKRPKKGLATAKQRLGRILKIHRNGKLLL
# Protocol: as §1, §2
# [3] = test system: HBV (genotype C, GTC); set-up: method as in PMID 31226346; conditions: humanized mouse model of HBV infection; cited from earlier work
# [4] = biological target: T1, KDM5B (Homo sapiens, UniProt Q9UGL1); assay: KDM5B enzymatic assay (CisBio HTRF); format: biochemical
# T1 construct: purchased Reaction Biology Corp (assay run there as a contract service)
# T1 sequence (Q9UGL1 whole entry): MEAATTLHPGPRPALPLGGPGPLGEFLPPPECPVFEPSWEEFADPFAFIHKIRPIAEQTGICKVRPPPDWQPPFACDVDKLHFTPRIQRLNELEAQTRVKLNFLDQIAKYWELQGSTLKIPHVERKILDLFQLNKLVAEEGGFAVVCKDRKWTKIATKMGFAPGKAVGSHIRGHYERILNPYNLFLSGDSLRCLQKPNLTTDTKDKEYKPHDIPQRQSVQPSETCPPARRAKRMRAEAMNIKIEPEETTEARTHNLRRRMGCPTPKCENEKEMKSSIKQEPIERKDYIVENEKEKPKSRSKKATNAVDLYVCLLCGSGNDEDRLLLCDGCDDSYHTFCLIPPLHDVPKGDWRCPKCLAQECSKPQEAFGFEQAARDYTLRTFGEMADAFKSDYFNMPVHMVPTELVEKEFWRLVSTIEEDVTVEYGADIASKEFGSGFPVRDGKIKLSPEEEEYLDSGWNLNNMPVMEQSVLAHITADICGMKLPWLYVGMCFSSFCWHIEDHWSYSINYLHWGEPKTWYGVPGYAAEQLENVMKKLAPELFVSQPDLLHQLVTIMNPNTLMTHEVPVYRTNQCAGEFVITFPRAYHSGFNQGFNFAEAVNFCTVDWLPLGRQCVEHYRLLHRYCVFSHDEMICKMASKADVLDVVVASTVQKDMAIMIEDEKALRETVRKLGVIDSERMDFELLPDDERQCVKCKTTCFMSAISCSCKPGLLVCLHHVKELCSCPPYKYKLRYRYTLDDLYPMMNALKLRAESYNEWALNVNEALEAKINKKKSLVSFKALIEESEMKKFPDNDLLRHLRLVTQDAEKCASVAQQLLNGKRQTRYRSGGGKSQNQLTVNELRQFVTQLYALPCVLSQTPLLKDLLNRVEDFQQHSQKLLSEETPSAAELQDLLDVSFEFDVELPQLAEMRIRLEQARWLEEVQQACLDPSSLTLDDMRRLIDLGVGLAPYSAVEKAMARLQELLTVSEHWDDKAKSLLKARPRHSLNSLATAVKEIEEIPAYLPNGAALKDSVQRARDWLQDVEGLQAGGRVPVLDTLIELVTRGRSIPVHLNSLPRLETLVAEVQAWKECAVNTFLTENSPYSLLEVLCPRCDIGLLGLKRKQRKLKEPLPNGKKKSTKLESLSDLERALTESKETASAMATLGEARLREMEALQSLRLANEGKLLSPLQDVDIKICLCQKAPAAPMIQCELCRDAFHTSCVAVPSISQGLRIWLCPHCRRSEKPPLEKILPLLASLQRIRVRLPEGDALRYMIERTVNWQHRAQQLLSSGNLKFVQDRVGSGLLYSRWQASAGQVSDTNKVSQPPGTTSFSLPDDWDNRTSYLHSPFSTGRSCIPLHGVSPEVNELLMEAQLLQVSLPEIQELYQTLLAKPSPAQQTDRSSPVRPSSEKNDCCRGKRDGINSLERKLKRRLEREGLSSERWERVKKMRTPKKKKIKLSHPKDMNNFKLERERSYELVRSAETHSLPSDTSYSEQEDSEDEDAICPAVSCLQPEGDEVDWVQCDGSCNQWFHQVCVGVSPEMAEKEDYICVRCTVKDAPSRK
# Protocol: (§3) KDM5A and 5B were tested using CisBio HTRF assay platform by Reaction Biology Corp (Malvern, PA). All concentrations are final unless noted otherwise. Inhibitors were pre-incubated with 2.5 nM KDM5A or 1.2 nM KDM5B in a 5 μL reaction mixture containing 50 mM HEPES (pH 7.5), 50 mM NaCl, 0.01% Tween 20, 0.01% BSA for 15 min temperature. The reaction was initiated by addition of 5 μL of 50 nM Biotin-H3K4me3 and incubated with gentle shaking for 45 min at RT. The reaction was quenched with 10 mM EDTA and 200 mM potassium fluoride. Upon addition of Eu-Antibody and Streptavidine-XL665, the mixture was incubated for 2 hours in the dark. The fluorescence resonance energy transfer was measured using an excitation wavelength of 320 nm and emission wavelength of 665 nm on an Envision plate reader (Perkin Elmer).
# as §2
# [5] = biological target: T2, KDM5A (Homo sapiens, UniProt P29375); assay: KDM5A enzymatic assay (CisBio HTRF); format: biochemical; conditions: enzyme concentration 2.5 nM; IC50 lower than enzyme concentration, likely underestimates potency
# T2 construct: purchased Reaction Biology Corp (assay run there as a contract service)
# T2 sequence (P29375 whole entry): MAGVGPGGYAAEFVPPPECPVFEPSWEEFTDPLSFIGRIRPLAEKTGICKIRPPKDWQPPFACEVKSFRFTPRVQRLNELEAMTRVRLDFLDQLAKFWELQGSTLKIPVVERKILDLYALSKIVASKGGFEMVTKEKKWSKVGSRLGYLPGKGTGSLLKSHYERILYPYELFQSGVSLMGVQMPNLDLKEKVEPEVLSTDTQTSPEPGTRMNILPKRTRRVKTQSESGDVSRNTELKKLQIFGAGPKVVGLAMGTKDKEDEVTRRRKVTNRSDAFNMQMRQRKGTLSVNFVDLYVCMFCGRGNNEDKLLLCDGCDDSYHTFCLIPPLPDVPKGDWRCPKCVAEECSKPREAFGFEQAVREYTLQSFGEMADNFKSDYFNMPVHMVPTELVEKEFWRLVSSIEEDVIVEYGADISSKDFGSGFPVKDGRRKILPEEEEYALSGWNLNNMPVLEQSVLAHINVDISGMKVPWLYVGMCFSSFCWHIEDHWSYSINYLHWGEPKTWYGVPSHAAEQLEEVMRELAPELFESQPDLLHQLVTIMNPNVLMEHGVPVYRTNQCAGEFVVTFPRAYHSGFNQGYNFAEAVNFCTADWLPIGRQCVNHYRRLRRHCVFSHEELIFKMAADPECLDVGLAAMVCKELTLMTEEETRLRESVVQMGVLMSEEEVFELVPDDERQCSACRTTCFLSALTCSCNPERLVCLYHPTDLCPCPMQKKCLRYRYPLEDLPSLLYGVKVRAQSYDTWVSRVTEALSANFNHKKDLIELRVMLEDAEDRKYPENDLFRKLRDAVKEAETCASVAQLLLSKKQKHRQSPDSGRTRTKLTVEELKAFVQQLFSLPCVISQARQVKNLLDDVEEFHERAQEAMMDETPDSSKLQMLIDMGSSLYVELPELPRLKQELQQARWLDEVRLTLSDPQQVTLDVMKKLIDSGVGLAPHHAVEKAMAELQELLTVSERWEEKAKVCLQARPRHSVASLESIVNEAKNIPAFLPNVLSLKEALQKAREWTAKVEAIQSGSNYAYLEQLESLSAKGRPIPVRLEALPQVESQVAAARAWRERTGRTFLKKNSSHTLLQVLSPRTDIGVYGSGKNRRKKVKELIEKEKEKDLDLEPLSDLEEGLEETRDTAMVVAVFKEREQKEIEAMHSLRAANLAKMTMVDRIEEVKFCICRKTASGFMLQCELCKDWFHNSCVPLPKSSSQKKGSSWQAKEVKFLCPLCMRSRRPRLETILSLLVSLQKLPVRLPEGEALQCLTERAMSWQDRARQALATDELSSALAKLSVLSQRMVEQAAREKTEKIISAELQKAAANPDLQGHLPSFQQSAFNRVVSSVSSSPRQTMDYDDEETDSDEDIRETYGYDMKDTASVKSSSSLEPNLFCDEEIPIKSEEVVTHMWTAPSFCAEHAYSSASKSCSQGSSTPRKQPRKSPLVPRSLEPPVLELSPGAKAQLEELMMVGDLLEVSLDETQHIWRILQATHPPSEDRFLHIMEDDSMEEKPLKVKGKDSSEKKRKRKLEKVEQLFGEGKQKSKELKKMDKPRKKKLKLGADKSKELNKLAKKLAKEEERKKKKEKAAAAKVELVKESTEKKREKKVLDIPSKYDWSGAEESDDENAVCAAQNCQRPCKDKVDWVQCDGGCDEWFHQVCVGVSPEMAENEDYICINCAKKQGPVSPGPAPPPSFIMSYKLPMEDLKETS
# Protocol: as §3, §2
# [6] = biological target: T3, KDM4B (Homo sapiens, UniProt O94953); assay: KDM4B enzymatic assay (AlphaLISA); format: biochemical; conditions: enzyme concentration 1 nM
# T3 sequence (O94953 1-1096): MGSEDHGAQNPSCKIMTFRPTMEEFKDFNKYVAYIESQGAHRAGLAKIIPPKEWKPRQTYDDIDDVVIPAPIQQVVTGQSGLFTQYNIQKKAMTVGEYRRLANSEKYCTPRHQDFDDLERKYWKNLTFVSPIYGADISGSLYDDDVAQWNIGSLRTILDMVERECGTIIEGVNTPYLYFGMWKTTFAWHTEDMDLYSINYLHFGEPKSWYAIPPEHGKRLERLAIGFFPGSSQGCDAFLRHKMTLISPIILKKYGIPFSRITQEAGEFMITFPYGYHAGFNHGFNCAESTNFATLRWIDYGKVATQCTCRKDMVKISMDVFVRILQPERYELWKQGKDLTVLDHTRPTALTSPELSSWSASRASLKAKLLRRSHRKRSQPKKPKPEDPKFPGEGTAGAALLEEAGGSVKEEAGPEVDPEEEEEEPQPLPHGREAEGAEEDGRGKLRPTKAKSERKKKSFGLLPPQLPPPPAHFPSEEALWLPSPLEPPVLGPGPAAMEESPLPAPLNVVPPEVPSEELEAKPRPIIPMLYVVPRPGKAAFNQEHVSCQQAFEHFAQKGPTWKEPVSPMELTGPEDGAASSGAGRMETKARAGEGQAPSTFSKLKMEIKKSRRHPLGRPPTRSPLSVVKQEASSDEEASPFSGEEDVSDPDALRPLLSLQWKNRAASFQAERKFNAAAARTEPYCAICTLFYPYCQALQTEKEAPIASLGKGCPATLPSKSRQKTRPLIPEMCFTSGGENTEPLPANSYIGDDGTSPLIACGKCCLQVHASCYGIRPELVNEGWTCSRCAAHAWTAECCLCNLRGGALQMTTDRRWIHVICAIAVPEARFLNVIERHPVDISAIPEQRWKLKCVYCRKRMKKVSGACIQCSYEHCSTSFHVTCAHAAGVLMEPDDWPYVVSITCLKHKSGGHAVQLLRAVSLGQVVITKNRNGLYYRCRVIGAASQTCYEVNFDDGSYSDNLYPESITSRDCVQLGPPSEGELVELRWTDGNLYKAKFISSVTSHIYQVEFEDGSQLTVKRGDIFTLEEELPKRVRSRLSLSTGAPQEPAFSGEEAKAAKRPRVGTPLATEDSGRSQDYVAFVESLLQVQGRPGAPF
# Protocol: as §1, §2
# [7] = biological target: T4, KDM2B (Homo sapiens, UniProt Q8NHM5); assay: KDM2B enzymatic assay (AlphaLISA); format: biochemical; conditions: enzyme concentration 2 nM
# T4 sequence (Q8NHM5 1-1336): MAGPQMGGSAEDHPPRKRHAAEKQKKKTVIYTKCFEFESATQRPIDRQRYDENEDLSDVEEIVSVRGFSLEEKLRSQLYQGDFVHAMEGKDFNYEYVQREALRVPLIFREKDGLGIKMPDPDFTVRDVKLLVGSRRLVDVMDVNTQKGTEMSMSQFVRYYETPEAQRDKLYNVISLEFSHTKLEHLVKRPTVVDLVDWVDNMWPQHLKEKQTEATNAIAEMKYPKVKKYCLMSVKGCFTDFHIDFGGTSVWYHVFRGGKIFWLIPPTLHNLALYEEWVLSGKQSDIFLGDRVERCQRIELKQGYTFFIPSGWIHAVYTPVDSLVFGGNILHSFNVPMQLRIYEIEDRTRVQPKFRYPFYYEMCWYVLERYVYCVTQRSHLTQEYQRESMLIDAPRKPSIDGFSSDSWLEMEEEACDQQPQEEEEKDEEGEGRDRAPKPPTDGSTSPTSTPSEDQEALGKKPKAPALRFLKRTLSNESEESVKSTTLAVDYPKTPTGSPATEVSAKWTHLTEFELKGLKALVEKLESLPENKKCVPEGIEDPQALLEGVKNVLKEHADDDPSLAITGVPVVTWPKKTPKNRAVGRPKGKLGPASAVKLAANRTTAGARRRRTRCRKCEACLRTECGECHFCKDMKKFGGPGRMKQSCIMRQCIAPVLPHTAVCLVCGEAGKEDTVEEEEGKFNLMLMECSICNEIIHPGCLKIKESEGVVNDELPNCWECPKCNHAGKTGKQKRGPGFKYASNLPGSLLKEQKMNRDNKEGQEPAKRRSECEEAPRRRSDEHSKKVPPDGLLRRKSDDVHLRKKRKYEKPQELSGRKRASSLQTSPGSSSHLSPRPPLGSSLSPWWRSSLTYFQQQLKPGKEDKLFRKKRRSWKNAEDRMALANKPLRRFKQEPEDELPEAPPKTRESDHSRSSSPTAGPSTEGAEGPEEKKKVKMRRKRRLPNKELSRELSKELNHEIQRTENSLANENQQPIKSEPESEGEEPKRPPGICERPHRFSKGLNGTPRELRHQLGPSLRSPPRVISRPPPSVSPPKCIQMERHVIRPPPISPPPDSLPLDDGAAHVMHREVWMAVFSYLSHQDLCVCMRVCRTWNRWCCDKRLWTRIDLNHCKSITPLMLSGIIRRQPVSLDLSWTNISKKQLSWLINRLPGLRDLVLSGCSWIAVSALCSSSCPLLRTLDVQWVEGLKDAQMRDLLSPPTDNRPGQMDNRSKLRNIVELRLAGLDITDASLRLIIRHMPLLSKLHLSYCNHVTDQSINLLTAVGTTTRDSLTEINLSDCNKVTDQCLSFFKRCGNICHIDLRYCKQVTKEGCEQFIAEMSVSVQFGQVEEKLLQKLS
# Protocol: as §1, §2
# [8] = biological target: KDM6A (Homo sapiens, UniProt O15550); assay: KDM6A enzymatic assay (AlphaLISA); format: biochemical; conditions: enzyme concentration 2 nM
# Protocol: as §1, §2
# [9] = Cytotoxicity CC50, MT-4; format: cell-based; conditions: human, MT-4 cells (T-lymphoblastoid cell line)
# Description: (§4) a Values represent the geometric mean and multiplicative standard deviation of 3 – 5 primary human hepatocyte (PHH) donors or 5 – 10 independent experiments.
# (§5) b MT-4: human T-lymphoblastoid cell line; PBMC: peripheral blood mononuclear cell; Gal-HepG2: galactose adapted human hepatoblastoma cell line; Huh-7: human hepatoma cell line; Gal-PC3: galactose adapted human prostate carcinoma cell line; MRC-5: Medical Research Council 5 embryonal lung fibroblast; NRVM: neonatal rat ventricular cardiomyocytes
# [10] = Cytotoxicity CC50, PBMC; format: cell-based; conditions: human, PBMC (peripheral blood mononuclear cells)
# Description: as §4, §5
# [11] = Cytotoxicity CC50, Gal-HepG2; format: cell-based; conditions: human, Gal-HepG2 cells (galactose adapted hepatoblastoma cell line)
# Description: as §4, §5
# [12] = Cytotoxicity CC50, Huh-7; format: cell-based; conditions: human, Huh-7 cells (hepatoma cell line)
# Description: as §4, §5
# [13] = Cytotoxicity CC50, PHH; format: cell-based; conditions: human, primary human hepatocytes (PHH)
# Description: as §4, §5
# [14] = Cytotoxicity CC50, Gal-PC3; format: cell-based; conditions: human
# Description: as §4, §5
# [15] = Cytotoxicity CC50, MRC-5; format: cell-based; conditions: human, MRC-5 cells (embryonal lung fibroblasts)
# Description: as §4, §5
# [16] = Cytotoxicity CC50, NRVM; format: cell-based; conditions: rat, NRVM (neonatal rat ventricular cardiomyocytes)
# Description: as §4, §5
# [17] = biological target: T5, NSD1 (Homo sapiens, UniProt Q96L73); assay: Histone methyltransferase enzymatic assay, NSD1; format: biochemical; conditions: enzyme conc. 50 nM
# T5 construct: 1538-2696; purchased RBC (read as Reaction Biology Corporation, named)
# Protocol: (§6) Histone methyltransferase assays were performed in 96-well half-area optiplates (PerkinElmer) at room temperature. All concentrations are final unless noted otherwise. Compounds were serially diluted in DMSO and the final DMSO concentration was 1%. A 24 μL reaction mixture contained compound, enzyme, 200 nM of nucleosome or histone substrate, 400 nM ^3H-SAM (83.1 Ci/mmol), 50 mM Tris-HCl (pH 8.0), 50 mM NaCl, 5 mM MgCl2, 1 mM DTT, and 0.01% Tween-20. The plate was sealed, mixed on a Titramax plate shaker at 1200 rpm for 30 sec, and incubated at room temperature for 60 min. The reaction was quenched by addition of 24 μL mixture containing 5 mg/mL PVT-PEI beads and 300 μM unlabeled SAM in water. The plate was sealed, mixed as previously noted, incubated overnight, and read on a TopCount plate reader (PerkinElmer).
# as §2
# [18] = biological target: T6, NSD3 (Homo sapiens, UniProt Q9BZ95); assay: Histone methyltransferase enzymatic assay, NSD3; format: biochemical; conditions: enzyme conc. 100 nM
# T6 construct: 1021-1322; purchased RBC (read as Reaction Biology Corporation, named)
# Protocol: as §6, §2
# [19] = biological target: T7, SET7/9 (Homo sapiens, UniProt Q8WTS6); assay: Histone methyltransferase enzymatic assay, SET7/9; format: biochemical; conditions: enzyme conc. 100 nM
# T7 construct: 2-366; purchased RBC (read as Reaction Biology Corporation, named)
# T7 sequence (Q8WTS6 2-366): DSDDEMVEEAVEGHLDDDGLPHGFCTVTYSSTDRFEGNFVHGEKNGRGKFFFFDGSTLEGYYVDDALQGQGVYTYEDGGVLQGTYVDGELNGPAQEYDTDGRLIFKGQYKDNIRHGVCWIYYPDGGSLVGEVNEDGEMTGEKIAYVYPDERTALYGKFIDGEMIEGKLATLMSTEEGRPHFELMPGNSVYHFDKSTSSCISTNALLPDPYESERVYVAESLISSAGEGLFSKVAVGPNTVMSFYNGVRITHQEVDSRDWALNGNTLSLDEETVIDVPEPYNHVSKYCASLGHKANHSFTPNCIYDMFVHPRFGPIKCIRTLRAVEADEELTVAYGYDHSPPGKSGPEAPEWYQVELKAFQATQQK
# Protocol: as §6, §2
# [20] = biological target: T8, GLP (Homo sapiens, UniProt Q9H9B1); assay: Histone methyltransferase enzymatic assay, GLP; format: biochemical
# T8 construct: 894-1298; purchased RBC (read as Reaction Biology Corporation, named)
# T8 sequence (Q9H9B1 894-1298): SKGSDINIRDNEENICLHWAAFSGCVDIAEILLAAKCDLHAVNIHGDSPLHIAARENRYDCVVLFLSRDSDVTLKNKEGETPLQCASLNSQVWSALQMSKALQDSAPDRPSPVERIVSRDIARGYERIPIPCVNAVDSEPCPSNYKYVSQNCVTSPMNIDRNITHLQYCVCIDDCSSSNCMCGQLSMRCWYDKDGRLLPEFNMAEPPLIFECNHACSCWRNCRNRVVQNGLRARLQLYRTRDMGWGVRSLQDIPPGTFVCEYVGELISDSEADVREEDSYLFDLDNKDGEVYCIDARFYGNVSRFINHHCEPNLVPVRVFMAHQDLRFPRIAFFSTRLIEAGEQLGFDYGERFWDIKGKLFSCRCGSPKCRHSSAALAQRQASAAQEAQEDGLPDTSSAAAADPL
# Protocol: as §6, §2
# [21] = biological target: T9, SETDB1 (Homo sapiens, UniProt Q15047); assay: Histone methyltransferase enzymatic assay, SETDB1; format: biochemical; conditions: enzyme conc. 100 nM
# T9 construct: 510-1290
# Protocol: as §6, §2
smiles,measurement,setting,value
"Oc1cccc2cccnc12 [8-OH Quinoline, 8-hydroxyquinoline, reference compound]",IC50,[1],6400 nM
same,IC50,[2],13000 nM
CC1=C(/C=C/C(C)=C/C=C/C(C)=C\C(=O)O)C(C)(C)CCC1 [Accutane],in vivo antiviral activity,[3],lack of in vivo antiviral activity
CCN(CCN(C)C)C(=O)CNCc1cc(C(=O)O)c(Br)cn1 [GS-444],fold reduced KDM5B inhibitory activity over GS-080,[4]; IC50 for KDM5B compared with GS-080,7000 fold
same,IC50,"[4]; enzyme concentration 1.2 nM, IC50 lower than enzyme concentration, likely underestimates potency",2760 nM
"O=C(O)c1ccnc(C(=O)O)c1 [PDCA, 2,4-Pyridinedicarboxylic acid, reference compound]",IC50,[5],410 nM
same,IC50,[6],860 nM
same,IC50,[7],19000 nM
same,IC50,[8],99000 nM
"COc1ccc(C[C@H](N)C(=O)N[C@H]2[C@@H](O)[C@H](n3cnc4c(N(C)C)ncnc43)O[C@@H]2CO)cc1 [Puromycin, reference compound]",CC50,[9],100 nM
same,CC50,[10],610 ± 1300 nM
same,CC50,[11],1300 ± 1400 nM
same,CC50,[12],670 ± 1500 nM
same,CC50,[13],1600 ± 1800 nM
same,CC50,[14],440 nM
same,CC50,[15],350 nM
same,CC50,[16],570 ± 1400 nM
"Nc1ncnc2c1ncn2[C@@H]1O[C@H](CSCC[C@H](N)C(=O)O)[C@@H](O)[C@H]1O [SAH, S-(5′-Adenosyl)-L-homocysteine, reference compound]",IC50,[17],93000 nM
same,IC50,[18],15000 nM
same,IC50,[19],70000 nM
same,IC50,[20],2200 nM
same,IC50,[21],17000 nM
